Data from patent US4404215A, “Piperidyl phenyl trifluoroethanols” (Science Union et Cie, priority 1978, dated 1983).

Tests used:
[1] = solubility; assay type: physicochemical; settings: for solubility in organic solvents: most of the organic solvents
[2] = nephrotoxicity and hepatotoxicity context; cited from earlier work
[3] = antipyretic effect, baker yeast hyperthermia (LOUX); assay type: in vivo; settings: rats; paracetamol 50 to 500 mg
Procedure: The antipyretic effect of the compounds of formula I has been determined according to the method described by J. J. LOUX and cowork. Toxicol. and Appl. Pharmacol. 22 (1972) 672. According to this method a hyperthermic crisis occurs in the rats after subcutaneous injection of baker yeast.
The compounds to be tested are administered orally in a suspension of an arabic gum solution 19 hours after the injection of yeast.
The body temperatures are measured from 1 to 5 hours after the ingestion of the compounds of formula I by means of a thermistor. The dosages tested range from 25 to 200 mg/kg.
The increase of body temperature in the control rats is about 2° in comparison of that of the untreated rats. The animals which receive the compounds of formula I show only a moderate increase of temperature, mainly 3 and 4 hours after the ingestion of the tested compound. The highest dosages (150 and 200 mg/kg) caused a return to the initial temperature in the treated animals.
In similar experimental conditions, batches of rats receive paracetamol at dose ranging from 50 to 500 mg.

Q: For `CCCCCCCCCCCCCCCCNc1ccc(C(O)C(F)(F)F)cc1` (racemic) [Example 8, 1-(4-nhexadecylaminophenyl) 2,2,2-trifluoroethanol], which “solubility in dilute solutions of acids” value ([1]; hydrochloric acid or acetic acid) is on record?
A: The value was “soluble”.

Q: With `CC(=O)Nc1ccc(C(O)C(F)(F)F)cc1` (centres unmarked) [Example 1, 1-(4-acetamidophenyl) 2,2,2-trifluoroethanol] as the compound, how does the solubility in ethanol ([1]; ethanol) read?
A: The solubility in ethanol was “soluble”.

Q: What about the solubility in methanol ([1]; methanol) of the same compound?
A: Its solubility in methanol is “soluble”.

Q: What about the solubility in water [1] of the same compound?
A: The solubility in water was “insoluble”.

Q: What does the source list for `CC(C)C(=O)Nc1ccc(C(O)C(F)(F)F)cc1` (centres unmarked) [Example 2, 1-(4-isobutyramidophenyl) 2,2,2-trifluoroethanol]?
A: solubility in organic solvents [1]: soluble; solubility in water [1]: insoluble

Q: With `OC(c1ccc(NC2CCN(CCc3ccccc3)CC2)cc1)C(F)(F)F` (centres unmarked) [Example 9, 4-[4-(2,2,2-trifluoro 1-hydroxyethyl)phenylamino] 1-(2-phenylethyl) piperidine] as the compound, how does the “solubility in N/10 hydrochloric acid” value ([1]; just calculated amount of N/10 hydrochloric acid) read?
A: The value was “soluble”.

Q: With `CCOC(c1ccc(NC(C)=O)cc1)C(F)(F)F` (centres unmarked) [Example 10, 1-(4-acetamidophenyl) 1-ethoxy 2,2,2-trifluoroethane] as the compound, how does the “solubility in organic solvents” value [1] read?
A: The value was “soluble”.

Q: And the solubility in water [1]?
A: Its solubility in water is “insoluble”.

Q: Which toxicity [2] does the source give for `CC(=O)Nc1ccc(O)cc1` [paracetamol] here?
A: The toxicity was “well-known toxicity”.

Q: What about the “useful dose which curbs significantly the increase of temperature, relative to compounds of formula I” value [3] of the same compound?
A: The value was “about twice of that of the compounds of formula I”.
